In patent US10377770B2 (Novartis AG, priority 2015, dated 2019):

Each compound was assayed against C-Raf FL (full length CRAF with Y340E and Y341E activating mutations, co-expressed with h14-3-3 zeta) (Homo sapiens (Human), UniProt P04049, Y340E/Y341E) (assay: In vitro Raf activity determination, AlphaScreen p-MEK readout, c-Raf (C-Raf FL)). Conditions: c-Raf approximately 4 nM, ATP 1 μM, pre-incubation 60 minutes, reaction 1 hour.
Chain of C-Raf FL (full length CRAF with Y340E and Y341E activating mutations, co-expressed with h14-3-3 zeta) (P04049 whole entry Y340E/Y341E): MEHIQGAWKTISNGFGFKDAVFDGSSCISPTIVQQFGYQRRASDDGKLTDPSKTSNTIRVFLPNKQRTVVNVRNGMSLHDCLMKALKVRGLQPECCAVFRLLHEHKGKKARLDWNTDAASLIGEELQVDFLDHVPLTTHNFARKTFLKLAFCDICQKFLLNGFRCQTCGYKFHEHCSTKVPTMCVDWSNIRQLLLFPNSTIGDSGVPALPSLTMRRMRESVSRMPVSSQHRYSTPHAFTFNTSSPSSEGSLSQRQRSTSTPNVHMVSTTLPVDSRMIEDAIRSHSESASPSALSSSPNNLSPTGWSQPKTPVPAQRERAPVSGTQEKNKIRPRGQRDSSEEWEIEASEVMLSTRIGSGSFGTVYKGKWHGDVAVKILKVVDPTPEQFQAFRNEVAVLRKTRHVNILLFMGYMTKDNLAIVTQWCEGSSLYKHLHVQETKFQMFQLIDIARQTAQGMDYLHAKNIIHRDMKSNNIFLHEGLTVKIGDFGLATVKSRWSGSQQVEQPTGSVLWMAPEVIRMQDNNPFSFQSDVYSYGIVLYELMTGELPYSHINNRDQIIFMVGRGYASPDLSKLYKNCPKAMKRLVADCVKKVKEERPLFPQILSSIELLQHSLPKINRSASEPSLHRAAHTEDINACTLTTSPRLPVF
Chain of C-Raf FL (full length CRAF with Y340E and Y341E activating mutations, co-expressed with h14-3-3 zeta) (P63104 whole entry partner): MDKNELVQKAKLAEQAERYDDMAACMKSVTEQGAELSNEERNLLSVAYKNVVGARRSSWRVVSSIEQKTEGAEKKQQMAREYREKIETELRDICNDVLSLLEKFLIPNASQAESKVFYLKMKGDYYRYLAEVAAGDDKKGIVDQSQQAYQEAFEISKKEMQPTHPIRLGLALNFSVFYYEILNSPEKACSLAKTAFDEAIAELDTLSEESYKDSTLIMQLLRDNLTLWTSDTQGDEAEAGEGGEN
Type: biochemical
Method in brief: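 Phosphorylation of kinase-dead biotinylated MEK1 (~10 nM) by C-Raf FL (~4 nM) read by AlphaScreen luminescence with anti-phospho-MEK1/2 after EDTA stop. ATP was 1 μM, with a 1 h reaction at room temperature. Compounds were pre-incubated with enzyme and substrate for 60 min in Tris/MgCl2 buffer, pH 7.5.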
`Cc1ccc(NC(=O)c2ccnc(C(C)(C)F)c2)cc1-c1cnc2c(c1)N1CCOC[C@H]1C[C@H]2O` [Example 142, 2-(2-fluoropropan-2-yl)-N-(3-((4aR,6R)-6-hydroxy-1,2,4,4a,5,6-hexahydro-[1,4]oxazino[4,3-a][1,5]naphthyridin-9-yl)-4-methylphenyl)isonicotinamide] showed an IC50 of 0.021 nM.
`Cc1ccc(NC(=O)c2ccnc(C(C)(C)F)c2)cc1-c1cnc2c(c1)N1CCOC[C@@H]1C[C@@H]2O` [Example 143, 2-(2-fluoropropan-2-yl)-N-(3-((4aS,6S)-6-hydroxy-1,2,4,4a,5,6-hexahydro-[1,4]oxazino[4,3 a][1,5]naphthyridin 9-yl)-4-methylphenyl)isonicotinamide] was tested, and the IC50 was 0.0088 nM.
Compound `Cc1ccc(NC(=O)c2cncc(C(F)(F)F)c2)cc1-c1cnc2c(c1)N1CCOC[C@H]1C[C@H]2O` [Example 145, N-(3-((4aR,6R)-6-hydroxy-1,2,4,4a,5,6-hexahydro-[1,4]oxazino[4,3-a][1,5]naphthyridin-9-yl)-4-methylphenyl)-5-(trifluoromethyl)nicotinamide] has an IC50 of 0.017 nM.
`Cc1ccc(NC(=O)c2cncc(C(F)(F)F)c2)cc1-c1cnc2c(c1)N1CCOC[C@@H]1C[C@@H]2O` [Example 146, N-(3-((4aS,6S)-6-hydroxy-1,2,4,4a,5,6-hexahydro-[1,4]oxazino[4,3-a][1,5]naphthyridin-9-yl)-4-methylphenyl)-5-(trifluoromethyl)nicotinamide] showed an IC50 of 0.012 nM.
`Cc1ccc(NC(=O)c2ccnc(C(C)(C)C#N)c2)cc1-c1cnc2c(c1)N1CCOC[C@H]1C[C@H]2O` [Example 150, 2-(2-cyanopropan-2-yl)-N-(3-((4aR,6R)-6-hydroxy-1,2,4,4a,5,6-hexahydro-[1,4]oxazino[4,3-a][1,5]naphthyridin-9-yl)-4-methylphenyl)isonicotinamide] showed an IC50 of 0.079 nM.
For `Cc1ccc(NC(=O)c2ccnc(C(C)(C)C#N)c2)cc1-c1cnc2c(c1)N1CCOC[C@@H]1C[C@@H]2O` [Example 151, 2-(2-cyanopropan-2-yl)-N-(3-((4aS,6S)-6-hydroxy-1,2,4,4a,5,6-hexahydro-[1,4]oxazino[4,3-a][1,5]naphthyridin-9-yl)-4-methylphenyl)isonicotinamide], the IC50 was 0.014 nM.
Work on `Cc1ccc(NC(=O)c2ccnc(C(F)(F)F)c2)cc1-c1cnc2c(c1)N1CCOC[C@H]1C1(COC1)C2` [Example 154, (R)-N-(4-methyl-3-(1′,2′,4′,4a′-tetrahydro-6′H-spiro[oxetane-3,5′-[1,4]oxazino[4,3-a][1,5]naphthyridin]-9′-yl)phenyl)-2-(trifluoromethyl)isonicotinamide] yielded an IC50 of 0.063 nM.
For `Cc1ccc(NC(=O)c2ccnc(C(F)(F)F)c2)cc1-c1cnc2c(c1)N1CCOC[C@@H]1C1(COC1)C2` [Example 155, (S)-N-(4-methyl-3-(1′,2′,4′,4a′-tetrahydro-6′H-spiro[oxetane-3,5′-[1,4]oxazino[4,3-a][1,5]naphthyridin]-9′-yl)phenyl)-2-(trifluoromethyl)isonicotinamide], the IC50 was 0.36 nM.
Compound `Cc1ccc(NC(=O)c2ccnc(C(C)(F)F)c2)cc1-c1cnc2c(c1)N1CCOC[C@H]1C(C)(C)[C@H]2O` [Example 161, 2-(1,1-difluoroethyl)-N-(3-((4aR,6R)-6-hydroxy-5,5-dimethyl-1,2,4,4a,5,6-hexahydro-[1,4]oxazino[4,3-a][1,5]naphthyridin-9-yl)-4-methylphenyl)isonicotinamide] has an IC50 of 0.08 nM.
In the case of `Cc1ccc(NC(=O)c2ccnc(C(C)(F)F)c2)cc1-c1cnc2c(c1)N1CCOC[C@@H]1C(F)(F)[C@@H]2O` [Example 162, N-(3-((4aR,6R)-5,5-difluoro-6-hydroxy-1,2,4,4a,5,6-hexahydro-[1,4]oxazino[4,3-a][1,5]naphthyridin-9-yl)-4-methylphenyl)-2-(1,1-difluoroethyl)isonicotinamide], the IC50 is reported as 0.093 nM.
In the case of `Cc1ccc(NC(=O)c2ccnc(C(C)(F)F)c2)cc1-c1cnc2c(c1)N1CCOC[C@H]1C(F)(F)[C@H]2O` [Example 164, N-(3-((4aS,6S)-5,5-difluoro-6-hydroxy-1,2,4,4a,5,6-hexahydro-[1,4]oxazino[4,3-a][1,5]naphthyridin-9-yl)-4-methylphenyl)-2-(1,1-difluoroethyl)isonicotinamide], the IC50 is reported as 0.43 nM.
With `Cc1ccc(NC(=O)c2ccnc(C(C)(F)F)c2)cc1-c1cnc2c(c1)N1CCOC[C@@H]1C(F)(F)[C@@H]2O` [Example 165, N-(3-((4aR,6R)-5,5-difluoro-6-hydroxy-1,2,4,4a,5,6-hexahydro-[1,4]oxazino[4,3-a][1,5]naphthyridin-9-yl)-4-methylphenyl)-2-(1,1-difluoroethyl)isonicotinamide] the IC50 was 0.62 nM.
Work on `Cc1ccc(NC(=O)c2ccnc(C(F)(F)F)c2)cc1-c1cnc2c(c1)N1CCOC[C@H]1C(F)(F)[C@H]2O` [Example 167, N-(3-((4aS,6S)-5,5-difluoro-6-hydroxy-1,2,4,4a,5,6-hexahydro-[1,4]oxazino[4,3-a][1,5]naphthyridin-9-yl)-4-methylphenyl)-2-(trifluoromethyl)isonicotinamide] yielded an IC50 of 0.077 nM.
Work on `Cc1ccc(NC(=O)c2ccnc(C(F)(F)F)c2)cc1-c1cnc2c(c1)N1CCOC[C@@H]1C(F)(F)[C@@H]2O` [Example 168, N-(3-((4aR,6R)-5,5-difluoro-6-hydroxy-1,2,4,4a,5,6-hexahydro-[1,4]oxazino[4,3-a][1,5]naphthyridin-9-yl)-4-methylphenyl)-2-(trifluoromethyl)isonicotinamide] yielded an IC50 of 0.77 nM.
With `CCN1C(=O)[C@H]2COCC[C@@H]2c2cc(-c3cc(NC(=O)c4ccnc(C(F)(F)F)c4)ccc3C)cnc21` [Example 236, N-(3-((4aR,10bS)-6-ethyl-5-oxo-1,4,4a,5,6,10b-hexahydro-2H-pyrano[3,4-c][1,8]naphthyridin-9-yl)-4-methylphenyl)-2-(trifluoromethyl)isonicotinamide] the IC50 was 0.3 nM.
`CCN1C(=O)Cc2nncn2-c2cc(-c3cc(NC(=O)c4ccnc(C(F)(F)F)c4)ccc3C)cnc21` [Example 237, N-(3-(6-ethyl-5-oxo-5,6-dihydro-4H-pyrido[2,3-b][1,2,4]triazo1o[4,3-d][1,4]diazepin-9-yl)-4-methylphenyl)-2-(trifluoromethyl) isonicotinamide] was tested, and the IC50 was 1.3 nM.
In the case of `CCN1C(=O)Cc2nncn2-c2cc(-c3cc(NC(=O)c4cccc(C(F)(F)F)c4)cnc3C)cnc21` [Example 238, N-(5-(6-ethyl-5-oxo-5,6-dihydro-4H-pyrido[2,3-b][1,2,4]triazo1o[4,3-d][1,4]diazepin-9-yl)-6-methylpyridin-3-yl)-3-(trifluoromethyl) benzamide], the IC50 is reported as 2.7 nM.
`CCN1C(=O)C(C)(C)c2nncn2-c2cc(-c3cc(NC(=O)c4ccnc(C(F)(F)F)c4)ccc3C)cnc21` [Example 239, N-(3-(6-ethyl-4,4-dimethyl-5-oxo-5,6-dihydro-4H-pyrido[2,3-b][1,2,4]-triazolo[4,3-d][1,4]diazepin-9-yl)-4 methylphenyl)-2-(trifluoromethyl) isonicotinamide] gave an IC50 of 4.7 nM.
For `CCN1C(=O)C(C)(C)c2nncn2-c2cc(-c3cc(NC(=O)c4cccc(C(F)(F)F)c4)cnc3C)cnc21` [Example 240, N-(5-(6-ethyl-4,4-dimethyl-5-oxo-5,6-dihydro-4H-pyrido[2,3-b][1,2,4]triazolo[4,3-d][1,4]diazepin-9-yl)-6-methylpyridin-3-yl)-3-(trifluoromethyl) benzamide], the IC50 was 10.6 nM.
